Results as given in patent US6174864A, “Methods for the prevention or treatment of inflammatory bowel diseases” (CCI Corporation, priority 1996, dated 2001).

Tests used:
[1] = cited from earlier work; for water-solubility: prior-art compounds
Water-solubility = assay type: physicochemical; details: ratio to that of Trolox
[2] = tested on: myeloperoxidase (MPO), TNB-induced colitis; assay: MPO activity in intestinal mucous membrane of TNB-induced colitis; assay type: in vivo, Male Wistar rats; details: intraabdominal, daily, one week, normal 0.19, control 0.74
Excerpt: (§1) The trinitrobenzenesulfonic acid (TNB)-induced colitis is said to resemble the inflammatory bowel disease of man, particularly Crohn's disease. In this model, the myeloperoxidase (MPO) activity, i.e. an index of the humectation of neutrophil into the tissue, prominently increases in the intestinal mucous membrane from the initial stage of the TNB administration onward and thereafter induces full-thickness inflammations inclusive of edama, erosion, and necrosis of the intestinal duct. In this lesion of the mucous membrane, the thiobarbituraic acid (TAB) reaction substance, i.e. an index of the peroxide of lipid, also increases and the antioxidizing substances such as the SOD activity, the glutathionperoxidase (GPx) activity, and α-tocopherol conversely decrease. By the use of this model, the chromanol glucoside was tested for the effect thereof manifested in repressing the lesion of the TNB-induced colitis.
(§2) As the chromanol glucoside, the 2-(α-D-glucopyranosyl) methyl-2,5,7,8-tetramethylchroman-6-ol (TMG) represented by the following formula (3) produced by the method described in Example 1 of JP-A-07-118,287 was thoroughly dissolved in water in varying concentrations of 20 mg/ml, 2 mg/ml, and 0.2 mg/ml to obtain injection grade preparations. [drawing 5]
Male Wistar rats 7 weeks old weighing 190-210 g were divided into groups of six heads. […]
(§3) Of the items of rating mentioned above, the damage score, the TBA reactive substance, and the MPO activity were measured by the following methods.
The determination was carried out in accordance with the o-dianisidine-hydrogen peroxide reaction (J. E. Krrawisz, et al.,: Gastroenterology, 87 (1984) 1344-135). […] In 950 μl of a reaction solution prepared by dissolving 16.7 mg of o-dianidine dihydrochloride in 50 mM of potassium phosphate having a pH of 6.0 and further mixing the resulting solution with 100 μl of an aqueous 0.5% hydrogen peroxide solution, 50 μl of the sample was placed and measured for change in absorbance at a wavelength of 460 nm with a spectrophotometer. […]

ICR type mice = assay: Test for acute toxicity; assay type: in vivo; details: oral, 500 mg/kg in 5% gum arabic solution, one week observation
Method: The preventive and curative agent of this invention for inflammatory bowel diseases was tested for acute toxicity in an effort to confirm the safety thereof. ICR type mice 4-5 weeks old were divided into groups of three heads. The same TMG as mentioned above was suspended as a chromanol glucoside in 5% gum arabic solution. The resultant suspension was orally administered to the rats in a dosage of 500 mg/kg as reduced to TMG, with the rats kept under observation for one week. In this case, 0.3 ml of a 5% gum arabic solution was administered to a control group.

TNB-induced colitis = assay: Effect of repressing lesion in TNB-induced colitis (body weight increase, damage score, wet weight of intestine); assay type: in vivo, Male Wistar rats; details: intraabdominal, daily, one week; for Wet weight: intestine, normal 0.58, control 2.6; for Damage score: lesion 0-5 plus adhesion 0-3, normal 0, control 7.25; for Amount of increase in body weight: normal group 93.5, control group 17.5
Excerpt: as §1, §2
Male Wistar rats 7 weeks old weighing 190-210 g were divided into groups of six heads. To the rats, after 48 hours' fasting, the TBN dissolved in 50% ethanol in a ratio of 120 mg/ml was intestinally administered at a dose of 1 ml/kg. Thereafter, the TMG preparations obtained as described above were administered to the rats intraabdominally at a dose of […] per head daily. After one week of the administration, the rats were rated for increase of body weight, damage score of the intestine in a 8 cm region on the side of the anus, wet weight, TBA reactive substance, and MPO activity.
as §3
The lesion on the intestinal mucous membrane was classified on the six-point (0-5) scale in accordance with the Morris Classification (G. P. Morris, et al.,: Gastoenterology, 96 (1989) 750-803) and the degree of adhesion to the intestinal mucous membrane was classified on the four-point (0-3) scale (0: absence of adhesion, 1: presence of incontinuous adhesion, 2: presence of continuous adhesion, and 3: presence of clots). The sums of these points were used for rating.

[3] = tested on: TBA reactive substance (index of the peroxide of lipid), TNB-induced colitis; assay: TBA reactive substance in intestinal mucous membrane of TNB-induced colitis; assay type: in vivo, Male Wistar rats; details: intraabdominal, daily, one week, normal 0.13, control 0.53
Excerpt: as §1, §2
Male Wistar rats 7 weeks old weighing 190-210 g were divided into groups of six heads. To the rats, after 48 hours' fasting, the TBN dissolved in 50% ethanol in a ratio of 120 mg/ml was intestinally administered at a dose of 1 ml/kg. […]
as §3
The determination was performed in accordance with the method proposed by Ohkawa et al. (H. Ohkawa, et al.: Anal. Biochem., 95 (1979) 351-358). […] The supernatant resulting from the centrifugation was measured for absorbance at a wavelength of 535 nm with a spectrophotometer. […] Based on this calibration curve, the TBA reactive substance of a sample was determined.

In the case of `Cc1c(C)c2c(c(C)c1O)CCC(C)(C(=O)O)O2` (centres unmarked) [Trolox, 6-hydroxy-2,5,7,8-tetramethylchroman-2-carboxylic acid], the water-solubility [1] is listed as “about 15 mg/100 ml”.
For `Cc1c(C)c2c(c(C)c1O)CCC(C)(CO)O2` (centres unmarked) [TMC-2-substituted methanol, 2-hydroxymethyl-2,5,7,8-tetramethylchroman-6-ol], the “water-solubility relative to Trolox” value (Water-solubility) is listed as “about 6.3 times” and the water-solubility [1] is listed as “about 100 mg/100 ml”.
In the case of `Cc1c(C)c2c(c(C)c1O)CCC(C)(CCCC(C)CCCC(C)CCCC(C)C)O2` (stereo not drawn) [vitamin E, α-tocopherol], the “water-solubility (in words)” value ([1]; prior-art compound) is listed as “not soluble in water”.
In the case of `Cc1c(C)c2c(c(C)c1O)CCC(C)(CO[C@H]1O[C@H](CO)[C@@H](O)[C@H](O)[C@H]1O)O2` (some centres unmarked) [TMG], the MPO activity ([2]; TMG 0.2 mg/ml) is reported as 0.52 U/l/mg protein, the MPO activity ([2]; TMG 2 mg/ml) is reported as 0.64 U/l/mg protein and the MPO activity ([2]; TMG 20 mg/ml) is reported as 0.48 U/l/mg protein. The “death of mouse in acute toxicity test” value (ICR type mice) was “No case of death”, the Wet weight (TNB-induced colitis; TMG 0.2 mg/ml) was 1.06 g/8 cm and the Damage score (TNB-induced colitis; TMG 0.2 mg/ml) was 4.75. For the same molecule, the “Amount of increase in body weight” value (TNB-induced colitis; TMG 0.2 mg/ml) was 63 g/one week, the Wet weight (TNB-induced colitis; TMG 2 mg/ml) was 1.15 g/8 cm and the Damage score (TNB-induced colitis; TMG 2 mg/ml) was 3.75. For the same molecule, the “Amount of increase in body weight” value (TNB-induced colitis; TMG 2 mg/ml) was 64 g/one week, the Wet weight (TNB-induced colitis; TMG 20 mg/ml) was 0.86 g/8 cm and the Damage score (TNB-induced colitis; TMG 20 mg/ml) was 4. The “Amount of increase in body weight” value (TNB-induced colitis; TMG 20 mg/ml) was 57 g/one week, the TAB reactive substance ([3]; TMG 0.2 mg/ml) was 0.31 ng/mg protein and the TAB reactive substance ([3]; TMG 2 mg/ml) was 0.38 ng/mg protein. The TAB reactive substance ([3]; TMG 20 mg/ml) was 0.35 ng/mg protein.
